# Measured values as given in patent US20230371814A1, “WIRELESS THERANOSTIC SMART CONTACT LENS CAPABLE OF MEASURING AND ADJUSTING INTRAOCULAR PRESSURE IN GLAUCOMA PATIENTS” (POSTECH RESEARCH AND BUSINESS DEVELOPMENT FOUNDATION, priority 2022, published 2023).
# Assay: In vitro release of timolol from the drug reservoir of the flexible DDS
# Assay type: physicochemical
# Experimental: An electrochemical reaction of gold was examined in vitro in PBS (pH 7.4) and artificial tears having a constant voltage of 1.85 V. Timolol was released from the drug reservoir by applying a voltage of 1.85 V to an anode and a cathode of a DDS for 5 minutes. A concentration of the released timolol was quantified with a UV-vis spectrometer at an absorbance wavelength of 259 nm.
compound,measurement,setting,value
CC(C)(C)NC[C@H](O)COc1nsnc1N1CCOCC1 [timolol],drug (timolol) released,absence of the PVA layer,less than 50%
same,timolol released without electrical triggering,"for 90 minutes, without electrical triggering",less than 5%
same,drug (timolol) dissolution,presence of PVA,completely dissolved
same,time until almost all of the timolol was completely released,presence of PVA,≤ 30 min
same,timolol released within 5 minutes,"presence of PVA, within 5 minutes",less than 85%
same,cumulative release of timolol at each activation,"three reservoirs activated at 10, 25 and 40 minutes",significantly enhanced
same,cumulative release of timolol before activation,"three reservoirs, until 10 minutes (before first activation)",no significant release
